# Source: patent EP1214933A1, “METHOD FOR MODULATING THE METABOLISM OF NITROGEN OXIDES, COMPOSITIONS THEREFOR (AND VARIANTS) AND METHOD FOR ACTING ON A PATIENT'S ORGANISM NECESSITATING THE METABOLISM OF NITROGEN OXIDES TO BE CORRECTED” (Institut Molekulyarnoi Genetiki Rossiiskoi Akademii Nauk ( …, priority 1999, dated 2001)
# How the values were obtained:
# [1] = Efficacy of renitrosation catalysts by N1-nitrozotriptophan denitrosation kinetics; type: biochemical; settings: 32°C, normalized for the buffer molarity
# Experimental: The efficacy of renitrosation catalysts was determined by N^1-nitrozotriptophan (NOW) denitrosation kinetics in the composition of an acylic derivative or serum albumin at 32°C and at different pH values by absorption decrease at λ = 340 nm or by differential spectroscopy relative to denitrosation reaction in a buffer solution, in relation to nitrite/nitrate ratio or by the ratio analysis of nitrosation products. Examples 7-17 illustrate catalytic and inhibitory activity of W^0/W^0buffer compounds used in the claimed compositions (normalized for the buffer molarity).
# NO oxidation in blood = test: In vivo micellar NO oxidation catalysis: arterial pressure and plasma nitrite/nitrate; design: species or system male rats of Wistar normotensive line; settings: for nitrate increased by / nitrite level increased by: plasma, following NaNO2 injection
# Experimental: The experiment was performed on male rats of Wistar normotensive line weighing 180-400 grams. Polyethylene catheters were implanted to animals under Ketamine anesthesia (5mg/100g intraperitoneally) 24 hours prior to the experiment. The femoral artery was catheterized for connecting to arterial blood pressure (AP) transducer and the femoral vein was catheterized for intravenous administering medicinal preparations. AP and heart rate (HR) were measured in the abdominal aorta using a pressure transducer connected to a computer through an amplifier and a digital converter. The animals were divided into groups each consisting of a control and a test subgroups. […] Monitoring AP and HR was continued for 1.5 hours after administering the solutions. Following recording initial AP level group one (group L-NAME) was intraperitonelly administered an inhibitor of NO-synthases N^ω-nitro-L-arginine methyl ester (50 mg/kg) and in 1.5 hours when AP stabilized at a steady level NaNO2 (1 mg/kg) was administered. After a steady lowering AP the animals were administered Perftoran or KH. Group two of rats (group FC) was administered Perftoran or KH immediately after recording initial AP level. Group three (group FCTh) was first administered 200 mg/kg α-lipoic acid and in 15 minutes it was administered Perftoran (or KH). Before commencement of each experiment, after AP got stabilized at a steady level while administering L-NAME and NaNO2 and also immediately following completion of monitoring 0.2 ml blood were taken in each experiment from the arterial catheter for analysis.
# [2] = reference buffer Phosphate, pH 6.3
# [3] = group L-NAME, experimental animals
compound,measurement,setting,value
"NC(N)=NCCCC(N)C(=O)O [Example 13, D-Arg]",W^0/W^0 buffer,"[1]; reference buffer MOPS, pH 6",0.56
"O=P([O-])([O-])OP(=O)([O-])OP(=O)([O-])[O-].[Mn+2].[Na+].[Na+].[Na+] [Example 9, Na3MnP3O10]",W^0/W^0 buffer,[1]; [2],21
"O=P([O-])([O-])OP(=O)([O-])OP(=O)([O-])[O-].[Mg+2].[Na+].[Na+].[Na+] [Example 10, Na3MgP3O10]",W^0/W^0 buffer,[1]; [2],11
O=N[O-].[Na+] [NaNO2],lowering MAP by,"NO oxidation in blood; group L-NAME, both subgroups, NaNO2 1 mg/kg after L-NAME",25±4 mm Hg
same,nitrate increased by,"NO oxidation in blood; group L-NAME, controls",76 ± 26 µM
same,nitrite level increased by,"NO oxidation in blood; group L-NAME, controls",362 ± 73 µM
same,nitrate increased by,NO oxidation in blood; [3],87 ± 15 µM
same,nitrite level increased by,NO oxidation in blood; [3],344 ± 68 µM
"O=P([O-])([O-])OP(=O)([O-])OP(=O)([O-])[O-].[Na+].[Na+].[Na+].[Na+].[Na+] [Example 7, Na5P3O10]",W^0/W^0 buffer,[1]; [2],4
"O=C1O[C@H]([C@@H](O)CO)C(O)=C1O [Example 17, Ascorbic acid]",W^0/W^0 buffer,"[1]; reference buffer Phosphate, pH 5.9",32
"COC(=O)[C@@H](N)CCCNC(=N)N[N+](=O)[O-] [L-NAME, N^ω-nitro-L-arginine methyl ester]",Plasma levels of nitrites and nitrates,"NO oxidation in blood; group L-NAME, after NOS inhibitor administration",insignificant lowering
same,mean arterial blood pressure (MAP) raised by,"NO oxidation in blood; group L-NAME, both subgroups, following L-NAME 50 mg/kg intraperitoneally",38±5 mm Hg
Na2MnATP [Example 8],W^0/W^0 buffer,[1]; [2],0.7
O=C(O)CCCCC1CCSS1 (stereo not drawn) [α-lipoic acid],MAP change,"NO oxidation in blood; FCTh group, both subgroups, α-lipoic acid 200 mg/kg",insignificant lowering MAP
